Molecular target: T1, EDG-1/S1P1 receptor (Homo sapiens, UniProt P21453)
T1 construct: expressed in transfected cells; host or cells: U2OS (human osteogenic sarcoma), EDG-1 Transfluor U2OS WT Clone #37
Assay: In Vitro Cell Based Receptor Activation Assay-Transfluor Assay
Conditions: EDG-1 Transfluor U2OS WT Clone #37 cells; beta-arrestin GFP relocalization in presence of S1P
Description: This cell-based assay was designed to assess the ability of small molecule antagonists to inhibit activation of the GPCR S1P1 in the presence of its cognate ligand S1P. The assay used technology initially developed by Norak Biosciences (Xsira Pharmaceutical) and presently owned by Molecular Devices. A human osteogenic sarcoma (U2OS) cell line overexpressing the EDG-1/S1P1) receptor as well as a beta-arrestin/green fluorescent protein (GFP) construct hereafter termed EDG-1 Transfluor U2OS WT Clone #37 was employed.
Using a high content screening approach (Cellomics Arrayscan), receptor activity was measured by assessment of the relocalization of beta-arrestin GFP in response to stimulation of EDG-1 by S1P. Specifically, EDG-1 Transfluor U2OS WT Clone #37 cells were plated at a density of 6250 cells in 40 uL medium per well in 384 well plastic bottomed inicrotiter plates (BD Falcon) and incubated overnight at 37° C./5% CO2. Prior to screening, compounds were dissolved in 100% dimethyl sulfoxide (DMSO) to a final stock concentration of 10 mM. Compounds were then serially diluted at 30× final concentration in EDG-1 Transfluor cell growth medium containing 30% DMSO using the Tecan Genesis instrument. […] Plates were then sealed and analysed on the Cellomics Arrayscan using the GPCR signalling algorithm. EC50 values were then calculated using IDBS ActivityBase software.

T1 sequence (P21453 whole entry): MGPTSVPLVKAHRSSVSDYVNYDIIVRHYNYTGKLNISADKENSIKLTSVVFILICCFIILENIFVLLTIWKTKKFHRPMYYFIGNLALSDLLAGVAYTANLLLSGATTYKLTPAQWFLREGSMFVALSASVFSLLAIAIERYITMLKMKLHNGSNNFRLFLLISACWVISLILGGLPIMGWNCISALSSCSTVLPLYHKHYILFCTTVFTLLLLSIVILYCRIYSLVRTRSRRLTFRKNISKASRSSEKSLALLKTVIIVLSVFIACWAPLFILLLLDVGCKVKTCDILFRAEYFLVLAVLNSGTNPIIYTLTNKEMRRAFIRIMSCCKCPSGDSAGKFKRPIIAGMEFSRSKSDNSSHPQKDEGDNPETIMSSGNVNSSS

Cc1cnc(C(Cc2ccccc2)NS(=O)(=O)c2ccc(Cl)cc2)n1C (stereo not shown) [Example 1, 4-Chloro-N-[1-(1,5-dimethyl-1H-imidazol-2-yl)-2-phenylethyl]benzenesulfonamide]
EC50: 2.12 µM
